Experimental data reported in ChEMBL document CHEMBL1151757, “Synthesis, radiosynthesis, and biological evaluation of fluorine-18-labeled 2beta-carbo(fluoroalkoxy)-3beta-(3'-((Z)-2-haloethenyl)phenyl)nortropanes: candidate radioligands for in vivo imaging of the serotonin transporter with positron emission tomography” (J Med Chem, 2008).

Assays:
[1] = Drug uptake in awake rhesus monkey brain frontal lobe after 13.5 mins postinjection; format: ADME, organism-based, Macaca mulatta; conditions: in vivo, 0.225 h
[2] = Drug uptake in awake rhesus monkey brain frontal lobe after 65 mins postinjection; format: ADME, organism-based, Macaca mulatta; conditions: in vivo
[3] = Drug uptake in awake rhesus monkey brain frontal lobe after 75 mins postinjection; format: ADME, organism-based, Macaca mulatta; conditions: in vivo, 1.25 h
[4] = Drug uptake in awake rhesus monkey brain medulla after 10.5 mins postinjection; format: ADME, organism-based, Macaca mulatta; conditions: in vivo, 0.175 h
[5] = Drug uptake in awake rhesus monkey brain medulla after 35 mins postinjection; format: ADME, organism-based, Macaca mulatta; conditions: in vivo
[6] = Drug uptake in awake rhesus monkey brain medulla after 55 mins postinjection; format: ADME, organism-based, Macaca mulatta; conditions: in vivo
[7] = Drug uptake in awake rhesus monkey brain medulla after 65 mins postinjection; format: ADME, organism-based, Macaca mulatta; conditions: in vivo
[8] = Drug uptake in awake rhesus monkey brain medulla after 85 mins postinjection; format: ADME, organism-based, Macaca mulatta; conditions: in vivo
[9] = Drug uptake in awake rhesus monkey brain medulla after 115 mins postinjection; format: ADME, organism-based, Macaca mulatta; conditions: in vivo
[10] = Drug uptake in awake rhesus monkey brain midbrain after 35 mins postinjection; format: ADME, organism-based, Macaca mulatta; conditions: in vivo
[11] = Drug uptake in awake rhesus monkey brain midbrain after 55 mins postinjection; format: ADME, organism-based, Macaca mulatta; conditions: in vivo
[12] = Drug uptake in awake rhesus monkey brain midbrain after 85 mins postinjection; format: ADME, organism-based, Macaca mulatta; conditions: in vivo
[13] = Ratio of drug uptake in putamen to cerebellum in awake rhesus monkey after 105 mins postinjection; format: ADME, organism-based, Macaca mulatta; conditions: in vivo, 1.75 h
[14] = Ratio of drug uptake in thalamus to cerebellum in awake rhesus monkey after 17.5 mins postinjection; format: ADME, organism-based, Macaca mulatta; conditions: in vivo
[15] = Drug uptake in awake rhesus monkey brain putamen after 75 mins postinjection; format: ADME, organism-based, Macaca mulatta; conditions: in vivo, 1.25 h
[16] = Drug uptake in awake rhesus monkey brain putamen after 95 mins postinjection; format: ADME, organism-based, Macaca mulatta; conditions: in vivo
[17] = Drug uptake in awake rhesus monkey brain caudate after 4.5 mins postinjection; format: ADME, organism-based, Macaca mulatta, Caudate nucleus; conditions: in vivo, 0.075 h
[18] = Drug uptake in awake rhesus monkey brain caudate after 10.5 mins postinjection; format: ADME, organism-based, Macaca mulatta, Caudate nucleus; conditions: in vivo, 0.175 h
[19] = Drug uptake in awake rhesus monkey brain caudate after 13.5 mins postinjection; format: ADME, organism-based, Macaca mulatta, Caudate nucleus; conditions: in vivo, 0.225 h
[20] = Drug uptake in awake rhesus monkey brain caudate after 25 mins postinjection; format: ADME, organism-based, Macaca mulatta, Caudate nucleus; conditions: in vivo
[21] = Drug uptake in awake rhesus monkey brain caudate after 55 mins postinjection; format: ADME, organism-based, Macaca mulatta, Caudate nucleus; conditions: in vivo
[22] = Drug uptake in awake rhesus monkey brain caudate after 95 mins postinjection; format: ADME, organism-based, Macaca mulatta, Caudate nucleus; conditions: in vivo
[23] = Drug uptake in awake rhesus monkey brain thalamus after 10.5 mins postinjection; format: ADME, organism-based, Macaca mulatta; conditions: in vivo, 0.175 h
[24] = Ratio of drug uptake in pons to cerebellum in awake rhesus monkey after 10.5 mins postinjection; format: ADME, organism-based, Macaca mulatta; conditions: in vivo, 0.175 h
[25] = Drug uptake in awake rhesus monkey brain thalamus after 65 mins postinjection; format: ADME, organism-based, Macaca mulatta; conditions: in vivo
[26] = Drug uptake in awake rhesus monkey brain thalamus after 95 mins postinjection; format: ADME, organism-based, Macaca mulatta; conditions: in vivo
[27] = Ratio of drug uptake in frontal lobe to cerebellum in awake rhesus monkey after 35 mins postinjection; format: ADME, organism-based, Macaca mulatta; conditions: in vivo
[28] = Drug uptake in awake rhesus monkey brain cerebellum after 10.5 mins postinjection; format: ADME, organism-based, Macaca mulatta; conditions: in vivo, 0.175 h
[29] = Drug uptake in awake rhesus monkey brain cerebellum after 25 mins postinjection; format: ADME, organism-based, Macaca mulatta; conditions: in vivo
[30] = Ratio of drug uptake in midbrain to cerebellum in awake rhesus monkey after 85 mins postinjection; format: ADME, organism-based, Macaca mulatta; conditions: in vivo
[31] = Drug uptake in anesthetized cynomolgus monkey brain occipital lobe after 197.5 mins postinjection; format: ADME, organism-based, Macaca fascicularis; conditions: in vivo
[32] = Drug uptake in anesthetized cynomolgus monkey brain occipital lobe after 202.5 mins postinjection; format: ADME, organism-based, Macaca fascicularis; conditions: in vivo, 3.375 h
[33] = Drug uptake in anesthetized cynomolgus monkey brain frontal lobe after 187.5 mins postinjection; format: ADME, organism-based, Macaca fascicularis; conditions: in vivo, 3.125 h
Putamen [34] = assay: Drug uptake in anesthetized cynomolgus monkey brain putamen after 182.5 mins postinjection; format: ADME, organism-based, Macaca fascicularis; conditions: in vivo
Putamen [35] = assay: Drug uptake in anesthetized cynomolgus monkey brain putamen after 202.5 mins postinjection; format: ADME, organism-based, Macaca fascicularis; conditions: in vivo, 3.375 h
Midbrain [36] = assay: Drug uptake in anesthetized cynomolgus monkey brain midbrain after 187.5 mins postinjection; format: ADME, organism-based, Macaca fascicularis; conditions: in vivo, 3.125 h
Midbrain [37] = assay: Drug uptake in anesthetized cynomolgus monkey brain midbrain after 192.5 mins postinjection; format: ADME, organism-based, Macaca fascicularis; conditions: in vivo
Midbrain [38] = assay: Drug uptake in anesthetized cynomolgus monkey brain midbrain after 197.5 mins postinjection; format: ADME, organism-based, Macaca fascicularis; conditions: in vivo
Midbrain [39] = assay: Drug uptake in anesthetized cynomolgus monkey brain midbrain after 202.5 mins postinjection; format: ADME, organism-based, Macaca fascicularis; conditions: in vivo, 3.375 h
Midbrain [40] = assay: Drug uptake in anesthetized cynomolgus monkey brain midbrain after 207.5 mins postinjection; format: ADME, organism-based, Macaca fascicularis; conditions: in vivo
Pons [41] = assay: Drug uptake in anesthetized cynomolgus monkey brain pons after 182.5 mins postinjection; format: ADME, organism-based, Macaca fascicularis; conditions: in vivo
Pons [42] = assay: Drug uptake in anesthetized cynomolgus monkey brain pons after 187.5 mins postinjection; format: ADME, organism-based, Macaca fascicularis; conditions: in vivo, 3.125 h
Pons [43] = assay: Drug uptake in anesthetized cynomolgus monkey brain pons after 197.5 mins postinjection; format: ADME, organism-based, Macaca fascicularis; conditions: in vivo
Pons [44] = assay: Drug uptake in anesthetized cynomolgus monkey brain pons after 202.5 mins postinjection; format: ADME, organism-based, Macaca fascicularis; conditions: in vivo, 3.375 h
Pons [45] = assay: Drug uptake in anesthetized cynomolgus monkey brain pons after 207.5 mins postinjection; format: ADME, organism-based, Macaca fascicularis; conditions: in vivo
Medulla [46] = assay: Drug uptake in anesthetized cynomolgus monkey brain medulla after 197.5 mins postinjection; format: ADME, organism-based, Macaca fascicularis; conditions: in vivo
Medulla [47] = assay: Drug uptake in anesthetized cynomolgus monkey brain medulla after 207.5 mins postinjection; format: ADME, organism-based, Macaca fascicularis; conditions: in vivo
[48] = Drug uptake in anesthetized cynomolgus monkey brain cerebellum after 197.5 mins postinjection; format: ADME, organism-based, Macaca fascicularis; conditions: in vivo
[49] = Drug uptake in anesthetized cynomolgus monkey brain cerebellum after 202.5 mins postinjection; format: ADME, organism-based, Macaca fascicularis; conditions: in vivo, 3.375 h
[50] = Drug uptake in anesthetized cynomolgus monkey brain cerebellum after 207.5 mins postinjection; format: ADME, organism-based, Macaca fascicularis; conditions: in vivo
Caudate [51] = assay: Drug uptake in anesthetized cynomolgus monkey brain caudate after 182.5 mins postinjection; format: ADME, organism-based, Macaca fascicularis, Caudate nucleus; conditions: in vivo
Caudate [52] = assay: Drug uptake in anesthetized cynomolgus monkey brain caudate after 187.5 mins postinjection; format: ADME, organism-based, Macaca fascicularis, Caudate nucleus; conditions: in vivo, 3.125 h
Caudate [53] = assay: Drug uptake in anesthetized cynomolgus monkey brain caudate after 192.5 mins postinjection; format: ADME, organism-based, Macaca fascicularis, Caudate nucleus; conditions: in vivo
Caudate [54] = assay: Drug uptake in anesthetized cynomolgus monkey brain caudate after 202.5 mins postinjection; format: ADME, organism-based, Macaca fascicularis, Caudate nucleus; conditions: in vivo, 3.375 h
Caudate [55] = assay: Drug uptake in anesthetized cynomolgus monkey brain caudate after 207.5 mins postinjection; format: ADME, organism-based, Macaca fascicularis, Caudate nucleus; conditions: in vivo
Thalamus [56] = assay: Drug uptake in anesthetized cynomolgus monkey brain thalamus after 182.5 mins postinjection; format: ADME, organism-based, Macaca fascicularis; conditions: in vivo
Thalamus [57] = assay: Drug uptake in anesthetized cynomolgus monkey brain thalamus after 192.5 mins postinjection; format: ADME, organism-based, Macaca fascicularis; conditions: in vivo
Thalamus [58] = assay: Drug uptake in anesthetized cynomolgus monkey brain thalamus after 202.5 mins postinjection; format: ADME, organism-based, Macaca fascicularis; conditions: in vivo, 3.375 h
Thalamus [59] = assay: Drug uptake in anesthetized cynomolgus monkey brain thalamus after 207.5 mins postinjection; format: ADME, organism-based, Macaca fascicularis; conditions: in vivo

## O=C(OCC[18F])C1C2CCC(CC1c1ccc(/C=C\I)cc1)N2 (centres undefined)
[1]
  Drug uptake: 1.57
[2]
  Drug uptake: 2.25
[3]
  Drug uptake: 2.18
[4]
  Drug uptake: 1.79
[5]
  Drug uptake: 2.46
[6]
  Drug uptake: 2.48
[7]
  Drug uptake: 2.28
[8]
  Drug uptake: 2.66
[9]
  Drug uptake: 2.57
[10]
  Drug uptake: 2.7
[11]
  Drug uptake: 2.76
[12]
  Drug uptake: 2.99
[13]
  Ratio: 2.5
[14]
  Ratio: 1.3
[15]
  Drug uptake: 3.38
[16]
  Drug uptake: 3.34
[17]
  Drug uptake: 1.17
[18]
  Drug uptake: 1.73
[19]
  Drug uptake: 1.87
[20]
  Drug uptake: 2.75
[21]
  Drug uptake: 3.11
[22]
  Drug uptake: 3.19
[23]
  Drug uptake: 1.89
[24]
  Ratio: 0.9
[25]
  Drug uptake: 3.48
[26]
  Drug uptake: 3.79
[27]
  Ratio: 1
[28]
  Drug uptake: 1.66
[29]
  Drug uptake: 2.12
[30]
  Ratio: 1.6

## O=C(OCCC[18F])C1C2CCC(CC1c1cccc(/C=C\Br)c1)N2 (centres undefined)
[31]
  Drug uptake: 2.91
[32]
  Drug uptake: 2.71
[33]
  Drug uptake: 2.39
Putamen [34]
  Drug uptake: 4.09
Putamen [35]
  Drug uptake: 3.82
Midbrain [36]
  Drug uptake: 4.65
Midbrain [37]
  Drug uptake: 4.52
Midbrain [38]
  Drug uptake: 4.54
Midbrain [39]
  Drug uptake: 4.46
Midbrain [40]
  Drug uptake: 4.46
Pons [41]
  Drug uptake: 3.71
Pons [42]
  Drug uptake: 3.85
Pons [43]
  Drug uptake: 3.36
Pons [44]
  Drug uptake: 3.68
Pons [45]
  Drug uptake: 3.24
Medulla [46]
  Drug uptake: 3.73
Medulla [47]
  Drug uptake: 3.58
[48]
  Drug uptake: 2.16
[49]
  Drug uptake: 2.13
[50]
  Drug uptake: 1.86
Caudate [51]
  Drug uptake: 3.95
Caudate [52]
  Drug uptake: 3.83
Caudate [53]
  Drug uptake: 3.75
Caudate [54]
  Drug uptake: 3.64
Caudate [55]
  Drug uptake: 3.41
Thalamus [56]
  Drug uptake: 3.94
Thalamus [57]
  Drug uptake: 3.83
Thalamus [58]
  Drug uptake: 3.84
Thalamus [59]
  Drug uptake: 3.35
